From PubChem BioAssay (NCI)
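Tested at 5 concentrations; 48 h exposure; 96-well plates; endpoints linearly interpolated, else capped at highest concentration. GI50 = concentration required for 50% inhibition of growth. TGI: concentration producing complete growth inhibition.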

Columns and labels:
Assay in all cases: DTP human tumour cell line panel, 48 h
[1] = system: UO-31 renal
[2] = system: XF 498 CNS
[3] = system: KM20L2 colon
[4] = system: A549 NSCLC
[5] = system: SW-620 colon
[6] = system: SF-268 CNS

| SMILES | TGI [1] | TGI [2] | TGI [3] | TGI [4] | TGI [5] | TGI [6] | GI50 [1] | GI50 [2] | GI50 [3] | GI50 [4] | GI50 [5] | GI50 [6] |
| --- | --- | --- | --- | --- | --- | --- | --- | --- | --- | --- | --- | --- |
| O=C(O)c1c2c(cc3c(=O)cc(-c4ccccc4)oc13)CCCC2 | > 100 µM | > 100 µM | > 100 µM | > 100 µM | > 100 µM | > 100 µM |  |  |  |  |  |  |
| CC[PH+](CC)CC.CC[PH+](CC)CC.[Au] | 35.8 µM | 26.4 µM | 33.3 µM | 53.1 µM | 15.6 µM | 30.1 µM | 21.4 µM | 11 µM | 17.3 µM | 22.8 µM | 5.13 µM | 13.4 µM |
| CC(C)=NNC(=S)NC12CC3CC(CC(C3)C1)C2 | > 100 µM | > 100 µM | > 100 µM | > 100 µM | > 100 µM | > 100 µM |  |  |  |  |  |  |
| Cc1ccc(C(=O)NCCN(C)C)c2nc3ccccc3cc12 | 11.1 µM | 3.95 µM | 6 µM | 4.53 µM | 3.52 µM |  |  |  |  |  |  |  |
| CN(/N=C\c1ccnc2ccccc12)c1ccccc1 | 54.4 µM | 47.5 µM |  | 53.1 µM | 51.4 µM | > 100 µM |  |  |  |  |  |  |
| O=C(O)CN(c1ccc(F)cc1)S(=O)(=O)c1ccccc1 | > 100 µM | > 100 µM | > 100 µM | > 100 µM | > 100 µM | > 100 µM |  |  |  |  |  |  |
| O=[N+]([O-])C=C1c2ccccc2-c2ccccc21 | 28.5 µM |  | 34.5 µM | 42.8 µM | 31.2 µM | 36.4 µM |  |  |  |  |  |  |
| COc1cc(O)c2c(c1)C(=O)C1=C(C2=O)C(O)C[C@@](C)(O)C1 (some centres undefined) | 6.6 µM | 3.46 µM | 11.6 µM | 11.5 µM | 2.53 µM | 4.47 µM |  |  |  |  |  |  |
| C=C1CC2(CCS(=O)(=O)c3ccccc32)OC1=O (centres undefined) | 26 µM | 26.1 µM | 28.6 µM | 35.2 µM | 11.4 µM | 38.4 µM |  |  |  |  |  |  |
| Cc1ccc(Sc2ccccc2N)cc1 | 31.5 µM |  | > 100 µM | > 100 µM | > 100 µM | > 100 µM |  |  |  |  |  |  |
| O=C(CSSCC(=O)Nc1ccc(Br)cc1)Nc1ccc(Br)cc1 | 31.8 µM | 34.5 µM | 29.2 µM | 35.8 µM | 29.4 µM | 26.6 µM |  |  |  |  |  |  |
| CCOC(=O)CN(c1ccccc1)c1nc(=[N+](C)C)ss1 | 54.5 µM |  | > 100 µM | > 100 µM | > 100 µM | > 100 µM |  |  |  |  |  |  |
| N#CCc1nnc(N)o1 | > 100 µM | > 100 µM | > 100 µM | > 100 µM | > 100 µM | > 100 µM |  |  |  |  |  |  |
| COC(=O)C1[C@H](c2ccc3c(c2)OCO3)OC(=O)[C@]1(C(=O)OC)C(=O)c1ccc(OC)c(OC)c1 (some centres undefined) | > 100 µM | > 100 µM | > 100 µM |  | > 100 µM |  |  |  |  |  |  |  |
| c1ccc2c(CNCCCCCCCCNCc3cccc4ccccc34)cccc2c1 | 3.45 µM | 3.24 µM | 3.22 µM | 5.41 µM | 3.29 µM | 21.4 µM |  |  |  |  |  |  |
